“Also recorded” adds a separate entry of the source.
Columns and labels:
[1] = test system: LPS induced pro-inflammatory proteins in liver; assay: Western blot of liver tissue lysates after LPS injection and ICV infusion; format: in vivo, mice; details: LPS 1 mg/kg i.p., vs vehicle
Method: Quantification of western blot analyses from liver tissue lysates expressed as fold change to vehicle and normalized over β-actin.
Quantification of western blot analyses from liver tissue lysates expressed as fold change to vehicle and normalized over β-actin. Mice were injected with LPS (1 mg/kg, i.p.) and randomly assigned to receive ICV glucose (4 mM) or vehicle infusions for 4 hours until necropsy.

[2] = test system: signal transducer and activator of transcription (Stat); assay: Stat expression and phosphorylation in peripheral tissues (lung, spleen, liver) by western blot; format: in vivo, mice; details: after ICV insulin infusion
Method: (§1) Male C57B1/6 mice were weaned at 4 weeks of age and fed a High Fat Diet (HFD) for 35 days to induce insulin resistance. After 30 days of HFD feeding, the mice underwent stereotactic surgery to implant intracerebroventricular (ICV) guide cannula (see, FIG. 2 for an illustration of cannula placement) followed by a 5-day recovery period until infusion experiments were carried out. On the day of the experiment, animals were placed in individual cages, received an intraperitoneal (i.p.) injection of E. coli (LPS) (1 mg/kg) and were continuously ICV infused using a micro infusion pump with Artificial CerebroSpinal Fluid (ACSF) or Insulin (0.005 mU/h) for 4 hours, yielding a total dose of 0.020 mU. See FIG. 1A-B for a graphical illustration of the protocol.
To investigate whether central insulin reduces cytokine signaling in peripheral tissues, the expression and phosphorylation of signal transducer and activator of transcription (Stat) was measured in lung (FIG. 4), spleen (FIG. 5) and liver (FIG. 6) tissue by western blot. […] Likewise, the activation of Stat3 which plays a central role in signaling of IL-6 and related cytokines was decreased in peripheral tissues after ICV insulin infusion. Lower protein levels of the pro-inflammatory cytokine IL-1β were detectable in the insulin-infused animals in liver, spleen and lung tissue. […]

LPS-treated mice = assay: Survival in a mouse model of sepsis (LPS 5 mg/kg, i.p.); format: in vivo; details: high fat diet C57B16 mice, ICV infusion up to 5 days, vs vehicle, assessed daily
Method: FIG. 9: ICV insulin improves survival in a mouse model of sepsis. 4 weeks old C57B16 mice were fed high fat diet for 4 weeks and ICV cannulas were implanted. Mice were injected with LPS (5 mg/kg, ip) and randomly assigned to receive ICV insulin or vehicle infusions for up to 5 days (n=11 per group). Survival was assessed daily as depicted.
In view of the potent anti-inflammatory effects mediated by insulin when administered to the CNS, studies were undertaken to determine whether administration of insulin to the CNS would protect mice from death in a sepsis model. 4-week old C57B16 mice were fed high fat diet for 4 weeks and ICV cannulas were implanted as described above. Mice were injected with LPS (5 mg/kg, i.p.) and randomly assigned to receive ICV insulin or vehicle infusions for up to 5 days (n=11 per group). Survival was assessed daily and results were plotted, see, e.g., FIG. 9.

[3] = test system: LPS induced pro-inflammatory proteins in lung; assay: Western blot of lung tissue lysates after LPS injection and ICV infusion; format: in vivo, mice; details: LPS 1 mg/kg i.p., ICV infusion 4 h, vs vehicle
Method: (§2) FIG. 1A-B: FIG. 1A, Experimental protocol for high fat diet feeding and intracerebroventricular (ICV) cannula implantation. 4 week old male C57B1/6 mice were fed a high fat diet for 4 weeks and ICV cannulae were implanted. After 5 days recovery from surgery infusion studies were performed. FIG. 1B, Protocol for infusion studies. Mice were injected with lipopolysaccharides (LPS) (1 mg/kg, i.p.) and randomly assigned to receive ICV insulin or vehicle infusions for 4 hours until necropsy.
FIG. 5: ICV insulin treatment reduces LPS induced pro-inflammatory proteins in lung. Quantification of Western blot analyses from lung tissue lysates expressed as fold change to vehicle and normalized over α-tubulin. Activation of the transcription factors Stat1 is decreased by central insulin. The level of the pro-inflammatory cytokine IL-1β is reduced in the ICV insulin infused animals. n=6 per group, *p<0.05.
Male C57B1/6 mice were weaned at 4 weeks of age and fed a High Fat Diet (HFD) for 35 days to induce insulin resistance. […]
To investigate whether central insulin reduces cytokine signaling in peripheral tissues, the expression and phosphorylation of signal transducer and activator of transcription (Stat) was measured in lung (FIG. 4), spleen (FIG. 5) and liver (FIG. 6) tissue by western blot. […]

[4] = test system: LPS induced pro-inflammatory proteins in spleen; assay: Western blot of spleen tissue lysates after LPS injection and ICV infusion; format: in vivo, mice; details: LPS 1 mg/kg i.p., ICV infusion 4 h, vs vehicle
Method: as §2
FIG. 4: ICV insulin treatment reduces LPS induced pro-inflammatory proteins in spleen. Quantification of Western blot analyses from spleen tissue lysates expressed as fold change to vehicle and normalized over β-actin. Activation of the transcription factors Stat1 and Stat3 is decreased. The pro-inflammatory markers IL-1β, COX2 and IKK-β are reduced in the ICV insulin infused animals. n=6 per group, *p<0.05.
as §1
To investigate whether central insulin reduces cytokine signaling in peripheral tissues, the expression and phosphorylation of signal transducer and activator of transcription (Stat) was measured in lung (FIG. 4), spleen (FIG. 5) and liver (FIG. 6) tissue by western blot. […] Likewise, the activation of Stat3 which plays a central role in signaling of IL-6 and related cytokines was decreased in peripheral tissues after ICV insulin infusion. Lower protein levels of the pro-inflammatory cytokine IL-1β were detectable in the insulin-infused animals in liver, spleen and lung tissue. Lower IL-1β levels in lung tissue has been associated with improvement of acute lung injury, which is a clinically important sequelae in sepsis.

[5] = test system: LPS induced pro-inflammatory cytokine levels; assay: Serum TNF-α and IL-6 by ELISA after LPS injection and ICV infusion; format: in vivo; details: high fat diet C57B1/6 mice, LPS 1 mg/kg i.p., ICV insulin 0.02 mU/h for 4 h vs vehicle, p<0.05
Method: as §2
FIG. 3: ICV insulin treatment reduces LPS induced pro-inflammatory cytokine levels. Mice were injected with LPS (1mg/kg, i.p.) infused with central insulin (0.02 mU/h) or vehicle for 4 h and sacrificed. Serum concentrations of TNF-α and IL-6 were determined by ELISA. n=12-14 per group, *p<0.05.
Male C57B1/6 mice were weaned at 4 weeks of age and fed a High Fat Diet (HFD) for 35 days to induce insulin resistance. After 30 days of HFD feeding, the mice underwent stereotactic surgery to implant intracerebroventricular (ICV) guide cannula (see, FIG. 2 for an illustration of cannula placement) followed by a 5-day recovery period until infusion experiments were carried out. […]

[6] = ICV insulin 4 h, normalized over β-actin

| Compound | Activation of Stat1 in liver ([1]; ICV glucose 4 mM for 4 hours) | Activation of Stat3 in liver ([1]; ICV glucose 4 mM for 4 hours) | IKK-β levels in liver (NF-κB signaling) ([1]; ICV glucose 4 mM for 4 hours) | PDI expression in liver (marker for ER stress) ([1]; ICV glucose 4 mM for 4 hours) | Activation of Stat3 in peripheral tissues [2] | LPS induced phosphorylation of Stat1 ([2]; measured in lung, spleen and liver) | Survival (LPS-treated mice) | IL-1β protein in liver ([1]; ICV insulin 4 h) | Activation of Stat1 in liver [1, 6] | Activation of Stat3 in liver [1, 6] | IL-1β protein in lung [3] | Activation of Stat1 in lung ([3]; normalized over α-tubulin) | COX2 protein in spleen [4] | IKK-β protein in spleen [4] | IL-1β protein in spleen [4] | Activation of Stat1 in spleen ([4]; normalized over β-actin) | Activation of Stat3 in spleen ([4]; normalized over β-actin) | Serum concentration of IL-6 [5] | Serum concentration of TNF-α [5] |
| --- | --- | --- | --- | --- | --- | --- | --- | --- | --- | --- | --- | --- | --- | --- | --- | --- | --- | --- | --- |
| O=C[C@H](O)[C@@H](O)[C@H](O)[C@H](O)CO [glucose] | significantly increased | significantly increased | Higher levels | Higher levels; also recorded: elevated | – | – | – | – | – | – | – | – | – | – | – | – | – | – | – |
| insulin | – | – | – | – | decreased | marked inhibition | significantly (p=0.0194) improved; also recorded: significantly improve the survival | reduced; also recorded: Lower | decreased | decreased | reduced; also recorded: Lower | decreased | reduced | reduced | reduced; also recorded: Lower | decreased | decreased | reduces | reduces |

Reference: patent US20120269882A1, “Brain Delivery of Insulin to Treat Systemic Inflammation” (MOUNT SINAI SCHOOL OF MEDICINE Office of Technology & …, priority 2009, published 2012)
